Measured values from ChEMBL document CHEMBL5385889, “Design, synthesis and biological evaluations of quinolone amides against African trypanosomiasis with improved solubility” (Eur J Med Chem, 2023).
Values after ≈ are worked out from the molar mass of the structure shown.

What was measured:
[1] = test system: J774.1; assay: Cytotoxicity against mouse J774.1 cells assessed as reduction in cell viability incubated for 24 hrs by alamar blue staining based analysis; type: functional
[2] = Selectivity index, ratio of CC50 for cytotoxicity against mouse J774.1 cells assessed as reduction in cell viability to IC50 for antitrypanosomal activity against wild type Trypanosoma brucei M1.2 Lister 427 trypomastigotes form assessed as parasite growth inhibition; type: toxicity, cell-based; conditions: read-out: Ratio CC50/IC50
[3] = test system: Trypanosoma brucei; assay: Antitrypanosomal activity against wild type Trypanosoma brucei M1.2 Lister 427 trypomastigotes form assessed as parasite growth inhibition incubated for 48 hrs; type: functional, organism-based; conditions: M1.2 Lister 427, 48 h
[4] = Thermodynamic aqueous solubility of compound in PBS buffer at pH 7.4 at 37 degreeC measured after 24 hrs by HPLC analysis; type: physicochemical; conditions: read-out: Therm_solubility
[5] = Octanol/water partition coefficient, log P of the compound by LC-MS analysis; type: physicochemical

SMILES	CC50 [1]	selectivity ratio [2]	IC50 [3]	solubility thermodynamic at 24 h [4]	logP ([5]; read-out: logP)	logP [5]
CCCCn1cc(C(=O)NC2(c3ccccc3)CCCC2)c(=O)c2ccc(N3CCOCC3)cc21	34.1 µM	8	4.4 µM	< 0.1 µg/mL	4.57	
CCCCn1cc(C(=O)NC2(c3ccccc3)CCCC2)c(=O)c2cc(F)c(N3CCOCC3)cc21	47.4 µM	26	1.83 µM	< 0.1 µg/mL	5.24	
CCCCn1cc(C(=O)NC2(c3ccccc3)CCCCC2)c(=O)c2cc(F)c(N3CCOCC3)cc21	31 µM	7	4.72 µM	< 0.1 µg/mL	5.64	
CCCCn1cc(C(=O)NCc2ccccc2)c(=O)c2cc(F)c(N3CCOCC3)cc21	57 µM	1210	0.047 µM			4.1
CCCCn1cc(C(=O)NCc2ccc(CN)cc2)c(=O)c2c(F)cc(N3CCOCC3)cc21	> 50 µM	> 200	0.25 µM	> 1000 µg/mL	2.72	
CCCCn1cc(C(=O)NCc2ccccc2)c(=O)c2ccc(N3CCCN(C)CC3)cc21	14.2 µM	5	2.97 µM	20.9 µg/mL (≈ 46.8 µM)	4.51	
CCCCn1cc(C(=O)NCc2ccccc2)c(=O)c2ccc(N3CCC(OCCOCCOCCOC)CC3)cc21	48.5 µM	48	1.01 µM	86.9 µg/mL (≈ 150 µM)	4.05	
O=C(NCc1ccccc1)c1cn(CC2CCCCC2)c2cc(N3CCOCC3)ccc2c1=O	> 50 µM	> 58	0.86 µM	< 0.1 µg/mL	4.59	
CCCCn1cc(C(=O)NC2(c3ccccc3)CC2)c(=O)c2c(F)cc(N3CCOCC3)cc21	> 50 µM	> 278	0.18 µM	< 0.1 µg/mL	3.54	
CCCCn1cc(C(=O)NCc2ccc(CN)cc2)c(=O)c2ccc(N3CCOCC3)cc21	> 50 µM	> 32	1.55 µM	> 1000 µg/mL	3.24	
CCCCn1cc(C(=O)NCc2ccccc2)c(=O)c2cc(F)c(N3CCOCC3)c(Cl)c21	> 50 µM	> 278	0.18 µM	< 0.1 µg/mL	5.01	
CCCCn1cc(C(=O)NCc2ccccc2)c(=O)c2ccc(N3CCOCC3)cc21	> 100 µM	> 435	0.23 µM			
CCCCn1cc(C(=O)NCc2ccccc2)c(=O)c2ccc(OCCOCCOCCOC)cc21	> 50 µM	> 45	1.12 µM	93 µg/mL (≈ 187 µM)	3.57	
O=C(NCc1ccccc1)c1cn(CC2CC2)c2cc(N3CCOCC3)ccc2c1=O	> 50 µM	> 91	0.55 µM	5.81 µg/mL (≈ 13.9 µM)	3.24	
CCCCN1CC(C)(C(=O)NCc2ccccc2)C(=O)c2ccc(N3CCOCC3)cc21 (centres undefined)	> 50 µM	> 13	3.74 µM	10.4 µg/mL (≈ 23.9 µM)	3.04	
CCCCn1cc(C(=O)NC2(c3ccccc3)CCOCC2)c(=O)c2ccc(N3CCOCC3)cc21	> 50 µM		> 20 µM	1.03 µg/mL (≈ 2.1 µM)	3.6	
CCCCn1cc(C(=O)NCc2ccc(CN)cc2)c(=O)c2cc(F)c(N3CCOCC3)cc21	49.2 µM	164	0.3 µM	> 1000 µg/mL	3.8	

SMILES	CC50 [1]	selectivity ratio [2]	IC50 [3]	solubility thermodynamic at 24 h [4]	logP ([5]; read-out: logP)	logP [5]
CCCCn1cc(C(=O)NCc2ccccc2)c(=O)c2c(F)cc(N3CCOCC3)cc21	> 100 µM	> 2000	0.05 µM		3.38	
CCCCn1cc(C(=O)NCc2cccc(CN)c2)c(=O)c2cc(F)c(N3CCOCC3)cc21	41.8 µM	80	0.52 µM	> 1000 µg/mL	3.83	
CCCCn1cc(C(=O)NC23CC(C2)C3)c(=O)c2ccc(N3CCOCC3)cc21	> 50 µM	> 13	3.72 µM	3.02 µg/mL (≈ 7.64 µM)	3.74	
CCCCn1cc(C(=O)NCc2cccc(CN)c2)c(=O)c2ccc(N3CCOCC3)cc21	> 50 µM	> 46	1.08 µM	> 1000 µg/mL	3.31	
CCCCn1cc(C(=O)NC2(c3ccccc3)CCS(=O)(=O)CC2)c(=O)c2ccc(N3CCOCC3)cc21	> 50 µM		> 20 µM	3.35 µg/mL (≈ 6.23 µM)	2.83	
CCCCn1cc(C(=O)NC2(c3ccccc3)CCCCC2)c(=O)c2ccc(N3CCOCC3)cc21	37 µM	9	4.18 µM	< 0.1 µg/mL	4.94	
CCCCn1cc(C(=O)NCc2ccc(C#N)cc2)c(=O)c2c(F)cc(N3CCOCC3)cc21	> 50 µM	> 500	0.1 µM	0.88 µg/mL (≈ 1.9 µM)	2.9	
O=C(NCc1ccccc1)c1cn(CC2CCC2)c2cc(N3CCOCC3)ccc2c1=O	29.9 µM	37	0.8 µM	1.66 µg/mL (≈ 3.85 µM)	3.68	
CCCCn1cc(C(=O)NC2(c3ccccc3)CC2)c(=O)c2cc(F)c(N3CCOCC3)c(F)c21	> 20 µM	> 333	0.06 µM	0.23 µg/mL (≈ 0.478 µM)	4.57	
O=C(NCc1ccccc1)c1cn(C23CC(C2)C3)c2cc(N3CCOCC3)ccc2c1=O	48.4 µM	373	0.13 µM	4.06 µg/mL (≈ 9.45 µM)	4.57	
CCCCn1cc(C(=O)NCc2ccccc2)c(=O)c2ccc(NCCOCCOCCOC)cc21	> 50 µM	> 43	1.15 µM	41 µg/mL (≈ 82.7 µM)	3.38	
CCCCn1cc(C(=O)NCc2ccccc2)c(=O)c2cc(OCC)c(N3CCOCC3)c(OCC)c21	33.2 µM	17	1.93 µM	< 0.1 µg/mL	5.51	
CCCCn1cc(C(=O)NC2(c3ccccc3)CCCCC2)c(=O)c2c(F)cc(N3CCOCC3)cc21	> 50 µM	> 12	4.22 µM	< 0.1 µg/mL	4.97	
CCCCn1cc(C(=O)NCc2ccccc2)c(=O)c2cc(F)c(N3CCOCC3)c(Br)c21	> 50 µM	> 106	0.47 µM	< 0.1 µg/mL	5.05	
CCCCn1cc(C(=O)NC2(c3ccccc3)CC2)c(=O)c2ccc(N3CCOCC3)cc21	> 50 µM	> 69	0.72 µM	< 0.1 µg/mL	3.76	
CCCCn1cc(C(=O)NCc2cccc(C#N)c2)c(=O)c2c(F)cc(N3CCOCC3)cc21	> 50 µM	> 2270	0.022 µM	0.24 µg/mL (≈ 0.519 µM)	2.98	
CCCCn1cc(C(=O)NC2(c3ccccc3)CC2)c(=O)c2cc(F)c(N3CCOCC3)cc21	> 50 µM	> 333	0.15 µM	< 0.1 µg/mL	4.46	
